Two substances from US20060258597A1, “Antitumorigenic drug combination and dosing schedule” (priority 2005, published 2006) can be followed below.

[ ]: non-standard residue; d: D form. d(aIle) = CC[C@H](C)[C@@H](N)C(=O)O; Nva = CCC[C@H](N)C(=O)O; Sar = CNCC(=O)O

The experiment concerns HT-1080 cells. Description: HT-1080 tumor growth inhibition in SCID mice (subcutaneous flank xenograft). It is filed as in vivo. As to conditions: peptide 120 Mpk BID SC and/or bevacizumab 3.0 Mpk twice per week SC; for % T/C: size of tumor treated/control. As to the method: Female SCID mice (Charles River Laboratories, Wilmington, Mass., USA) with an average body weight of 18.7 g were inoculated subcutaneously into the right flank with 0.1 mL of about 0.5×10^6 HT-1080 cells (1:1 matrigel) on a Friday. Day 3, post inoculation (Monday), the mice were ear tagged and randomized into groups of ten control and treated groups. The representative prodrug of a peptidomimetic of the second of the three Type-1 repeats of TSP-1, N-Ac-Sar-Gly-Val-D-alloIle-Thr-Nva-Ile-Arg-Pro-NHCH2CH3 (120 mpk), was administered twice per day (BID) during the dosing regimen, and the representative […] bevacizumab (3 mpk) was administrated each Monday and Wednesday during the same dosing regimen. Tumors were measured with calipers every Monday, Wednesday and Friday days beginning at day 3, post inoculation. Tumor volumes were calculated according to the formula V=L×W^2/2, wherein V is volume (mm^3), L is length and W is width. Antitumorigenesis was measured by percent tumor growth inhibition (TGI).
The term “mpk,” as used herein, means milligrams drug per kilogram mammal.
The term “SE,” as used herein, means standard error.
The term “T/C,” as used herein, means size of tumor (treated/control).
The term “SC,” as used herein, means subcutaneously.
The term “p-value,” as used herein, means confidence level of comparison to control.
Controls comprised vehicle only. Vehicles for N-Ac-Sar-Gly-Val-D-alloIle-Thr-Nva-Ile-Arg-Pro-NHCH2CH3 and bevacizumab were D5W (5% glucose in water) and isotonic saline (0.9% NaCl in water), respectively.

In the case of Ac-[Sar]GV[d(aIle)]T[Nva]IRP-NHEt, the “% TGI (percent tumor growth inhibition)” value is 30.24% (Day 7), 41.61% (Day 10), 44.30% (Day 12) and 48.79% (Day 14). In addition, the “% T/C” value reads like this: (Day 7) 69.76%; (Day 10) 58.39%; (Day 12) 55.70%; (Day 14) 51.21%.
With bevacizumab, the “% TGI (percent tumor growth inhibition)” value is listed as 33.68% (Day 7), 39.40% (Day 10), 39.25% (Day 12) and 58.30% (Day 14). Also, the “% T/C” value came out at 66.32% (Day 7), 60.60% (Day 10), 60.75% (Day 12) and 41.70% (Day 14).
